Measurements as given in patent publication US10799605B2 (3B PHARMACEUTICALS GMBH, priority 2014, dated 2020).
Read-outs that look alike come from different tables or passages of the source.

How the values were obtained:
[1] = target: NOP (ORL1) (h) (Homo sapiens (Human), UniProt P41146); test: ExpresSProfile: nociception receptor, agonist radioligand; assay type: binding; settings: Test Concentration 1.0E−05 M
[2] = target: beta 1 (h) (Homo sapiens (Human), UniProt P08588); test: ExpresSProfile: beta1 adrenergic receptor, agonist radioligand; assay type: binding; settings: Test Concentration 1.0E−05 M
[3] = test system: GPCRs, ion channels, and transporter proteins; test: Specificity screening (ExpresSProfile), whole panel; assay type: binding; settings: 10^−5 M
Protocol: The specificity screening was carried out in order to test for unspecific binding of compounds of the present invention. The specificity for NTR1 was tested using a standard battery of assays (“ExpresSProfile”) comprising 55 assays on GPCRs, ion channels, and transporter proteins. This assay was performed by Cerep (Celle l'Evescault, France; Catalog reference P1).
Unspecific binding according to this specificity screening is observed if Inhibition of Control Specific Binding is above 50%.

[4] = target: B2 (h) (Homo sapiens (Human), UniProt P30411); test: ExpresSProfile: bradykinin receptor 2, agonist radioligand; assay type: binding; settings: Test Concentration 1.0E−05 M
[5] = target: H1 (h) (Homo sapiens (Human), UniProt P35367); test: ExpresSProfile: histamine receptor 1, antagonist radioligand; assay type: binding; settings: Test Concentration 1.0E−05 M
[6] = test system: GABA (non-selective); test: ExpresSProfile: GABA, agonist radioligand; assay type: binding; settings: Test Concentration 1.0E−05 M
[7] = target: norepinephrine transporter (h) (Homo sapiens (Human), UniProt P23975); test: ExpresSProfile: norepinephrine transporter, antagonist radioligand; assay type: binding; settings: Test Concentration 1.0E−05 M
[8] = target: A1 (h) (Homo sapiens (Human), UniProt P30542); test: ExpresSProfile: adenosine receptor 1, antagonist radioligand; assay type: binding; settings: Test Concentration 1.0E−05 M
[9] = target: ETA (h) (Homo sapiens (Human), UniProt P25101); test: ExpresSProfile: endothelin receptor A, agonist radioligand; assay type: binding; settings: Test Concentration 1.0E−05 M
[10] = target: 5-HT transporter (h) (Homo sapiens (Human), UniProt P31645); test: ExpresSProfile: 5-HT transporter, antagonist radioligand; assay type: binding; settings: Test Concentration 1.0E−05 M
[11] = target: 5-HT2A (h) (Homo sapiens (Human), UniProt P28223); test: ExpresSProfile: 5-hydroxytryptamine receptor 2A, antagonist radioligand; assay type: binding; settings: Test Concentration 1.0E−05 M
[12] = test system: BZD (central); test: ExpresSProfile: benzodiazepine, agonist radioligand; assay type: binding; settings: Test Concentration 1.0E−05 M
[13] = target: M3 (h) (Homo sapiens (Human), UniProt P20309); test: ExpresSProfile: muscarinic receptor 3, antagonist radioligand; assay type: binding; settings: Test Concentration 1.0E−05 M
[14] = target: NTR1 (Homo sapiens (Human), UniProt P30989); test: Functional Ca2+ mobilisation assay (example part II); assay type: cell-based; settings: antagonist assay
Method in brief: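 HT29 or NTR1-expressing HEK293 cells loaded with Ca5 dye for 1 h at 37 °C in buffer at pH 7.4, and fluorescence recorded for about 90 s after addition. EC50 derived from agonist serial dilutions; IC50 from antagonists pre-incubated 30 min before an EC80 agonist challenge.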

[15] = target: mu (MOP) (h) (Homo sapiens (Human), UniProt P35372); test: ExpresSProfile: mu opioid receptor, agonist radioligand; assay type: binding; settings: Test Concentration 1.0E−05 M
[16] = target: 5-HT1A (h) (Homo sapiens (Human), UniProt P08908); test: ExpresSProfile: 5-hydroxytryptamine receptor 1A, agonist radioligand; assay type: binding; settings: Test Concentration 1.0E−05 M
[17] = target: 5-HT5a (h) (Homo sapiens (Human), UniProt P47898); test: ExpresSProfile: 5-hydroxytryptamine receptor 5a, agonist radioligand; assay type: binding; settings: Test Concentration 1.0E−05 M
[18] = target: CCR1 (h) (Homo sapiens (Human), UniProt P32246); test: ExpresSProfile: C-C chemokine receptor type 1, agonist radioligand; assay type: binding; settings: Test Concentration 1.0E−05 M
[19] = test system: alpha 2 (non-selective); test: ExpresSProfile: alpha2 adrenergic receptor, antagonist radioligand; assay type: binding; settings: Test Concentration 1.0E−05 M
[20] = read-out: % Inhibition of Control Specific Binding
[21] = read-out: % of Control Specific Binding 1st
[22] = read-out: % of Control Specific Binding 2nd
[23] = read-out: % of Control Specific Binding Mean

Sequence of norepinephrine transporter (h) (P23975 whole entry): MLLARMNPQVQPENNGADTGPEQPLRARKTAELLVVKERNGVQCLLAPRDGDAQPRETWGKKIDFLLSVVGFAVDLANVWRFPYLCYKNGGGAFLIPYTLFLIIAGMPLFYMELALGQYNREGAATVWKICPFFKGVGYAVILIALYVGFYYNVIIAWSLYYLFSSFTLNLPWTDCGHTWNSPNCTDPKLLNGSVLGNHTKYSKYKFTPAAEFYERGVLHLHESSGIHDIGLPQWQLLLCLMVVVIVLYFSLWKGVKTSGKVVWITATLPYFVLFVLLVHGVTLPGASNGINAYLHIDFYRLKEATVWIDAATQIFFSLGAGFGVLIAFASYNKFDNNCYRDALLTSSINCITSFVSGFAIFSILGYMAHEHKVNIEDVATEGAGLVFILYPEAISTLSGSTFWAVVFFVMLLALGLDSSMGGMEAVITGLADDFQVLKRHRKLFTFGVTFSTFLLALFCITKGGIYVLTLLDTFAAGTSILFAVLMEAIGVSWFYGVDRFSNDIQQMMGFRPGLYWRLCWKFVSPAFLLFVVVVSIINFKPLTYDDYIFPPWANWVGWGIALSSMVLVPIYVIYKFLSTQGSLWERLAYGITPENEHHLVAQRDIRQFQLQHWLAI
Sequence of B2 (h) (P30411 whole entry): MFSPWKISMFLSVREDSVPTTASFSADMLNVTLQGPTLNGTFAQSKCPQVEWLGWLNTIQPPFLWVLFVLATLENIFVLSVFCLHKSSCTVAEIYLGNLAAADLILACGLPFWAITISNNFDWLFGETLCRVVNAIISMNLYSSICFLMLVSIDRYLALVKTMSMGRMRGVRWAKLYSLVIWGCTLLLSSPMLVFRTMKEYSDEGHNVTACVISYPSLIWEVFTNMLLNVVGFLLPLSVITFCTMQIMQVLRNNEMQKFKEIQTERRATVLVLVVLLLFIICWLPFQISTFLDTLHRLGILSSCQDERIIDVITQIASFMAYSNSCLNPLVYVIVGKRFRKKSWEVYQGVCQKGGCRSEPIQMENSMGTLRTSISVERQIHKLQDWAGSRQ
Sequence of H1 (h) (P35367 whole entry): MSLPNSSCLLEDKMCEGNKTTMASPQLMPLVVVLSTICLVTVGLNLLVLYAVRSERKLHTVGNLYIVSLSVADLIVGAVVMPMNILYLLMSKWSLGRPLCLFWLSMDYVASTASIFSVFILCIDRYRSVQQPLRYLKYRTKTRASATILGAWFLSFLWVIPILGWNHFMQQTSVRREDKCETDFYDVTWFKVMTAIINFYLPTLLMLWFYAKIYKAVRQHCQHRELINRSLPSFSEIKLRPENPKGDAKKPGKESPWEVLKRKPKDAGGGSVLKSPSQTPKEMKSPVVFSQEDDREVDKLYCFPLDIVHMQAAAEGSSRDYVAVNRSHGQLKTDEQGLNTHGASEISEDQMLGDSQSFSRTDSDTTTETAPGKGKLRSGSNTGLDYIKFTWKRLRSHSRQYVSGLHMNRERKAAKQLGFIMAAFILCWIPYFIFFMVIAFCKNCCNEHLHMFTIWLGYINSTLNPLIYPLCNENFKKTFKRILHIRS
Sequence of 5-HT1A (h) (P08908 whole entry): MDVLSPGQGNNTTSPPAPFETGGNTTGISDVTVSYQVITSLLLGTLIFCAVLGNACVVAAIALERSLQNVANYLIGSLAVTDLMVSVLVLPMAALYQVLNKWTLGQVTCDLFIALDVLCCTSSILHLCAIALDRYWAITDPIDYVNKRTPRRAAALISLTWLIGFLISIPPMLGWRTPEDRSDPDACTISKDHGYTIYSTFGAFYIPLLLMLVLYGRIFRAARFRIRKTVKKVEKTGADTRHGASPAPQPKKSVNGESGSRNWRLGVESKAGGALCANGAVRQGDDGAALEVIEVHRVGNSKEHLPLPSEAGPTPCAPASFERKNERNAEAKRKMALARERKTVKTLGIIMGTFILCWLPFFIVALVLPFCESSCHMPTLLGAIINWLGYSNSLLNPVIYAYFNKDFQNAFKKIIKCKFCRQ
Sequence of beta 1 (h) (P08588 whole entry): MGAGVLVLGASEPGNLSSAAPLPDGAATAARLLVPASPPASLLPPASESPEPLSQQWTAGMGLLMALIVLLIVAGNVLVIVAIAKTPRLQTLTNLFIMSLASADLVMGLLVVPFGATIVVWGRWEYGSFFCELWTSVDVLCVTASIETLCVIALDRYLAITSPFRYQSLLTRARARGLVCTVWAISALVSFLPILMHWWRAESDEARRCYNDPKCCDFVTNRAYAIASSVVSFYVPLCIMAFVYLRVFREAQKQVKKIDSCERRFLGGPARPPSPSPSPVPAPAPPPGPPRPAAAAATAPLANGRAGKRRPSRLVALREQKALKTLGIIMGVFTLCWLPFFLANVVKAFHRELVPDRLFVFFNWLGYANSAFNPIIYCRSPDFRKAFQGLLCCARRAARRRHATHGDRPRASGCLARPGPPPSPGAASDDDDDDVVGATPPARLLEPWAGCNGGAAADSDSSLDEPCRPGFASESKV
Sequence of 5-HT2A (h) (P28223 whole entry): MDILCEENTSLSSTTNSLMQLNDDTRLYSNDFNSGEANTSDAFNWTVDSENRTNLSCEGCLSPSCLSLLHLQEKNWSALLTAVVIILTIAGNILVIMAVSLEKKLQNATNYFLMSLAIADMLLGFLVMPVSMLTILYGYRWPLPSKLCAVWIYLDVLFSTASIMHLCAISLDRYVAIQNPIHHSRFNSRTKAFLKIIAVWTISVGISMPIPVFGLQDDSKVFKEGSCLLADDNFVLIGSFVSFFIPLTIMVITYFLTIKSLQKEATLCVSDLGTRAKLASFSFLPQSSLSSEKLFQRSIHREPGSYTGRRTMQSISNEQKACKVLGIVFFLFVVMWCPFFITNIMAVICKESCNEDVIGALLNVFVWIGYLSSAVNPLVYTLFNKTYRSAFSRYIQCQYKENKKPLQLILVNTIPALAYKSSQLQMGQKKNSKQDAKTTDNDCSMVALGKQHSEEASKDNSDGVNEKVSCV
Sequence of 5-HT5a (h) (P47898 whole entry): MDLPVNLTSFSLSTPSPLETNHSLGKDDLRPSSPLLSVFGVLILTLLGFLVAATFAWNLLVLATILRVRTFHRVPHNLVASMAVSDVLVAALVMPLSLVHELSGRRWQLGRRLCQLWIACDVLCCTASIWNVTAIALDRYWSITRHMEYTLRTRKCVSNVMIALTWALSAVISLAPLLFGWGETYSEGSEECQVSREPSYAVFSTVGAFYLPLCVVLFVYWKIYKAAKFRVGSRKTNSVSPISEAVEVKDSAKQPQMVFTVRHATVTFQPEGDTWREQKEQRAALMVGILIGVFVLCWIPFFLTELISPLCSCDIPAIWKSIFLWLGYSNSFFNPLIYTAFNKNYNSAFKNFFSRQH
Sequence of NOP (ORL1) (h) (P41146 whole entry): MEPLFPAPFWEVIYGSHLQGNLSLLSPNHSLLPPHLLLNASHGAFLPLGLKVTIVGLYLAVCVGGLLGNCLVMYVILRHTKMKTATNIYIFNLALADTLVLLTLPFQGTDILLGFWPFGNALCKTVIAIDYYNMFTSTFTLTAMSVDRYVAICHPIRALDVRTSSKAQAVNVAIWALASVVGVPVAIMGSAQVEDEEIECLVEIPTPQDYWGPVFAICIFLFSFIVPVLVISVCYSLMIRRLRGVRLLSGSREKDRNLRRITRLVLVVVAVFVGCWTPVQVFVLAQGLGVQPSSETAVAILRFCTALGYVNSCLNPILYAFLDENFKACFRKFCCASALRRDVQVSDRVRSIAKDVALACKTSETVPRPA
Sequence of 5-HT transporter (h) (P31645 whole entry): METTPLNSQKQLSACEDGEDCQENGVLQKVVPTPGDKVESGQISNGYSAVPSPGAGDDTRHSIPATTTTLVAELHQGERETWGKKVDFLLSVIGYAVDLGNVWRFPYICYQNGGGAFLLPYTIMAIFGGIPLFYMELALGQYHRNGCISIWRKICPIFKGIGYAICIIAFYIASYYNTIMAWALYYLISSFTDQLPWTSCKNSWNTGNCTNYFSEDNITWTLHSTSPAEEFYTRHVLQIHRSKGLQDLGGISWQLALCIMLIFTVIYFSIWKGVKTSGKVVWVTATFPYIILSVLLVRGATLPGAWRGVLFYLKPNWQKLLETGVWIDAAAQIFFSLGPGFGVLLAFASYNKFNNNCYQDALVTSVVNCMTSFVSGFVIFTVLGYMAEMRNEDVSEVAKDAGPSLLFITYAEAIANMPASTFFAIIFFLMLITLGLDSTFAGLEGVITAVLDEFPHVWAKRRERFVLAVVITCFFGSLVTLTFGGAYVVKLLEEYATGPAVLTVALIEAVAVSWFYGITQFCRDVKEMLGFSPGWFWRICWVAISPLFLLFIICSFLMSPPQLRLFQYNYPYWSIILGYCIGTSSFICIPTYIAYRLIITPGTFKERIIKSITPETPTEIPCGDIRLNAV
Sequence of CCR1 (h) (P32246 whole entry): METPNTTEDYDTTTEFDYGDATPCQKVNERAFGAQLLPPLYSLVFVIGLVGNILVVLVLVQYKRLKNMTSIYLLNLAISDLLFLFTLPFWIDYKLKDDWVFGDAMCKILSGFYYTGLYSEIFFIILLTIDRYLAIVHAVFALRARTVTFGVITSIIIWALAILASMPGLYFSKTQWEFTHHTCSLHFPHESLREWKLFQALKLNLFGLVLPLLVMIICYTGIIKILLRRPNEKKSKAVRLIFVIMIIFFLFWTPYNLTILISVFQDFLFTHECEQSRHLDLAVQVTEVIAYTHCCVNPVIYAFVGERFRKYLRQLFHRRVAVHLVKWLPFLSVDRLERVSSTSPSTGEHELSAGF
Sequence of A1 (h) (P30542 whole entry): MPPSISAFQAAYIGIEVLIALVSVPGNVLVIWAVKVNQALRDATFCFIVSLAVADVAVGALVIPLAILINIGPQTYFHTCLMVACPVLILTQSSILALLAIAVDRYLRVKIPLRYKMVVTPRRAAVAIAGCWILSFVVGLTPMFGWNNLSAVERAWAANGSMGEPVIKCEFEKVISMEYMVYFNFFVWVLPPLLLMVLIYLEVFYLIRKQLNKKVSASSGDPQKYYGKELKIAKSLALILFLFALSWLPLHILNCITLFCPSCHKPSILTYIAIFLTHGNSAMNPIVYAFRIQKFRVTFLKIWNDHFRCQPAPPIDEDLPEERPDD

For `COc1cccc(OC)c1-c1cc(C(=O)NC2(C(=O)O)C3CC4CC(C3)CC2C4)nn1-c1ccc(C(=O)N(C)CCCN(C)CCCN(C)C(=O)CN2CCN(CC(=O)O)CCN(CC(=O)O)CCN(CC(=O)O)CC2)cc1C(C)C` (stereo not shown) [(IIIa), 2-{[1-{4-[(3-{[3-(DOTA-methyl-amino)-propyl]-methyl-amino}-propyl)-methyl-carbamoyl]-2-isopropyl-phenyl}-5-(2,6-dimethoxy-phenyl)-1H-pyrazole-3-carbonyl]-amino}-adamantane-2-carboxylic acid], which inhibition at 10 µM [1, 20] is on record?
The inhibition at 10 µM was -7%.

And the remaining activity at 10 µM [1, 21]?
Its remaining activity at 10 µM is 104%.

What about the remaining activity at 10 µM [1, 22] of the same molecule?
Its remaining activity at 10 µM is 109%.

And the remaining activity at 10 µM [1, 23]?
The remaining activity at 10 µM was 107%.

And the inhibition at 10 µM [2, 20]?
The inhibition at 10 µM was 2%.

And the remaining activity at 10 µM [2, 21]?
The remaining activity at 10 µM was 89.9%.

What about the remaining activity at 10 µM [2, 22] of the same molecule?
Its remaining activity at 10 µM is 106%.

What about the remaining activity at 10 µM [2, 23] of the same molecule?
The remaining activity at 10 µM was 98%.

And the specificity [3]?
The specificity was “highly specific”.

What about the inhibition at 10 µM [4, 20] of the same molecule?
Its inhibition at 10 µM is 11%.

What about the remaining activity at 10 µM [4, 21] of the same molecule?
Its remaining activity at 10 µM is 98.7%.

What about the remaining activity at 10 µM [4, 22] of the same molecule?
Its remaining activity at 10 µM is 79.9%.

And the remaining activity at 10 µM [4, 23]?
The remaining activity at 10 µM was 89.3%.

And the inhibition at 10 µM [5, 20]?
Its inhibition at 10 µM is -12%.

And the remaining activity at 10 µM [5, 21]?
The remaining activity at 10 µM was 121%.

What about the remaining activity at 10 µM [5, 22] of the same molecule?
Its remaining activity at 10 µM is 103%.

And the remaining activity at 10 µM [5, 23]?
The remaining activity at 10 µM was 112%.

And the “% Inhibition of Control Specific Binding” value [6]?
Its value is −6%.

And the “% of Control Specific Binding 1st” value [6]?
Its value is 101.9%.

What about the “% of Control Specific Binding 2nd” value [6] of the same molecule?
Its value is 109.9%.

What about the “% of Control Specific Binding Mean” value [6] of the same molecule?
The value was 105.9%.

What about the inhibition at 10 µM [7, 20] of the same molecule?
Its inhibition at 10 µM is -12%.

And the remaining activity at 10 µM [7, 21]?
Its remaining activity at 10 µM is 119%.

What about the remaining activity at 10 µM [7, 22] of the same molecule?
Its remaining activity at 10 µM is 105%.

What about the remaining activity at 10 µM [7, 23] of the same molecule?
Its remaining activity at 10 µM is 112%.

And the inhibition at 10 µM [8, 20]?
The inhibition at 10 µM was -24%.

What about the remaining activity at 10 µM [8, 21] of the same molecule?
Its remaining activity at 10 µM is 143%.

And the remaining activity at 10 µM [8, 22]?
The remaining activity at 10 µM was 104%.

What about the remaining activity at 10 µM [8, 23] of the same molecule?
Its remaining activity at 10 µM is 124%.

What about the inhibition at 10 µM [9, 20] of the same molecule?
Its inhibition at 10 µM is -10%.

What about the remaining activity at 10 µM [9, 21] of the same molecule?
The remaining activity at 10 µM was 114%.

And the remaining activity at 10 µM [9, 22]?
The remaining activity at 10 µM was 105%.

What about the remaining activity at 10 µM [9, 23] of the same molecule?
Its remaining activity at 10 µM is 110%.

What about the inhibition at 10 µM [10, 20] of the same molecule?
Its inhibition at 10 µM is -13%.

And the remaining activity at 10 µM [10, 21]?
Its remaining activity at 10 µM is 103%.

What about the remaining activity at 10 µM [10, 22] of the same molecule?
Its remaining activity at 10 µM is 123%.

And the remaining activity at 10 µM [10, 23]?
Its remaining activity at 10 µM is 113%.

What about the inhibition at 10 µM [11, 20] of the same molecule?
The inhibition at 10 µM was -2%.

And the remaining activity at 10 µM [11, 21]?
The remaining activity at 10 µM was 101%.

And the remaining activity at 10 µM [11, 22]?
The remaining activity at 10 µM was 103%.

What about the remaining activity at 10 µM [11, 23] of the same molecule?
Its remaining activity at 10 µM is 102%.

What about the “% Inhibition of Control Specific Binding” value [12] of the same molecule?
The value was −16%.

What about the “% of Control Specific Binding 1st” value [12] of the same molecule?
The value was 109.4%.

And the “% of Control Specific Binding 2nd” value [12]?
The value was 122.6%.

What about the “% of Control Specific Binding Mean” value [12] of the same molecule?
The value was 116.0%.

And the inhibition at 10 µM [13, 20]?
Its inhibition at 10 µM is -23%.

What about the remaining activity at 10 µM [13, 21] of the same molecule?
The remaining activity at 10 µM was 122%.

And the remaining activity at 10 µM [13, 22]?
Its remaining activity at 10 µM is 124%.

What about the remaining activity at 10 µM [13, 23] of the same molecule?
Its remaining activity at 10 µM is 124%.

What about the IC50 [14] of the same molecule?
The IC50 was 20 nM.

What about the inhibition at 10 µM [15, 20] of the same molecule?
The inhibition at 10 µM was 0%.

What about the remaining activity at 10 µM [15, 21] of the same molecule?
The remaining activity at 10 µM was 108%.

And the remaining activity at 10 µM [15, 22]?
The remaining activity at 10 µM was 92.6%.

What about the remaining activity at 10 µM [15, 23] of the same molecule?
The remaining activity at 10 µM was 100%.

And the inhibition at 10 µM [16, 20]?
The inhibition at 10 µM was -29%.

And the remaining activity at 10 µM [16, 21]?
The remaining activity at 10 µM was 130%.

What about the remaining activity at 10 µM [16, 22] of the same molecule?
The remaining activity at 10 µM was 129%.

What about the remaining activity at 10 µM [16, 23] of the same molecule?
The remaining activity at 10 µM was 129%.

And the inhibition at 10 µM [17, 20]?
Its inhibition at 10 µM is -2%.

What about the remaining activity at 10 µM [17, 21] of the same molecule?
Its remaining activity at 10 µM is 109%.

And the remaining activity at 10 µM [17, 22]?
Its remaining activity at 10 µM is 95.2%.

What about the remaining activity at 10 µM [17, 23] of the same molecule?
Its remaining activity at 10 µM is 102%.

What about the inhibition at 10 µM [18, 20] of the same molecule?
Its inhibition at 10 µM is -6%.

What about the remaining activity at 10 µM [18, 21] of the same molecule?
The remaining activity at 10 µM was 103%.

And the remaining activity at 10 µM [18, 22]?
The remaining activity at 10 µM was 109%.

And the remaining activity at 10 µM [18, 23]?
The remaining activity at 10 µM was 106%.

What about the “% Inhibition of Control Specific Binding” value [19] of the same molecule?
Its value is −10%.

What about the “% of Control Specific Binding 1st” value [19] of the same molecule?
The value was 114.4%.

What about the “% of Control Specific Binding 2nd” value [19] of the same molecule?
The value was 106.1%.

What about the “% of Control Specific Binding Mean” value [19] of the same molecule?
Its value is 110.3%.
